Here are results for 13 compounds from ChEMBL document CHEMBL5518187, “EGCG-like non-competitive inhibitor of DYRK1A rescues cognitive defect in a down syndrome model” (Eur J Med Chem, 2024).

The source made the active and inactive calls. No cut-off for these calls is given here.

Series [1] has as its target Dual specificity tyrosine-phosphorylation-regulated kinase 1A (Homo sapiens, UniProt Q13627). The series is described as follows: Inhibition of DYRK1A (unknown origin) using KISGRLSPIMTEQ as substrate incubated for 30 mins in presence of ATP by UFLC-based fluorimetric analysis.
The subject of series [2] is Mus musculus. The experiment in a line: Cognitive enhancing effect in Dp1Yey C57BL/6J mouse model assessed as increase in percentage of spontaneous alternation at 40 mg/kg, po administered 5 days per week for 2 months by Y-maze test. It counts as functional, organism-based.
A short description of series [3]: Stability in human plasma at 1 uM incubated for 120 mins by LC-MS/MS analysis. The conditions noted are these: 2 h. The class given is ADME, cell-free.
Series [4] deals with Mus musculus. The series is described as follows: Effect on spatial working memory in Dp1Yey C57BL/6J mouse model assessed as reduction in time spent in center at 40 mg/kg, po administered 5 days per week for 2 months by Y-maze test. It counts as functional, organism-based.
Series [5] relates to Mus musculus. The series is described as follows: Effect on spatial working memory in Dp1Yey C57BL/6J mouse model assessed as reduction in mean speed at 40 mg/kg, po administered 5 days per week for 2 months by Y-maze test. The class given is functional, organism-based.
The target of series [6] is Tyrosine-protein kinase Fyn (Homo sapiens) (UniProt P06241). The series is described as follows: Inhibition of FYN (unknown origin) at 0.5 uM.
Sequence of Tyrosine-protein kinase Fyn (Homo sapiens) (P06241 2-537 limits assumed): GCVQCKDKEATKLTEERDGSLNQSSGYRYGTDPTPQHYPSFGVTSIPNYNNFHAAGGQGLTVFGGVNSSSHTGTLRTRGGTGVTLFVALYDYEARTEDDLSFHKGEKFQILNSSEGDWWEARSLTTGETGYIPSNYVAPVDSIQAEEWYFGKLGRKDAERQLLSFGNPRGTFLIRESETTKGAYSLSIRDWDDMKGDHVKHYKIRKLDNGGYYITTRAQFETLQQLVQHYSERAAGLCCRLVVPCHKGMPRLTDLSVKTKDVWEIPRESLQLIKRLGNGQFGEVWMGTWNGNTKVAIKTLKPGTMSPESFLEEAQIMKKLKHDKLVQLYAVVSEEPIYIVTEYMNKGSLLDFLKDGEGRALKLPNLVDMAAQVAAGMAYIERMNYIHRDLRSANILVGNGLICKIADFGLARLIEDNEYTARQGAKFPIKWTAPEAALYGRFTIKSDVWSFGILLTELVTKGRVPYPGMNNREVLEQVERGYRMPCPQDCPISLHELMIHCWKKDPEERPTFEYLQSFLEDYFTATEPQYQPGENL
Series [7] deals with Glycogen synthase kinase-3 beta (Homo sapiens) (UniProt P49841). The series is described as follows: Inhibition of GSK3beta (unknown origin) at 0.5 uM.
Sequence of Glycogen synthase kinase-3 beta (Homo sapiens) (P49841 whole entry, looked up): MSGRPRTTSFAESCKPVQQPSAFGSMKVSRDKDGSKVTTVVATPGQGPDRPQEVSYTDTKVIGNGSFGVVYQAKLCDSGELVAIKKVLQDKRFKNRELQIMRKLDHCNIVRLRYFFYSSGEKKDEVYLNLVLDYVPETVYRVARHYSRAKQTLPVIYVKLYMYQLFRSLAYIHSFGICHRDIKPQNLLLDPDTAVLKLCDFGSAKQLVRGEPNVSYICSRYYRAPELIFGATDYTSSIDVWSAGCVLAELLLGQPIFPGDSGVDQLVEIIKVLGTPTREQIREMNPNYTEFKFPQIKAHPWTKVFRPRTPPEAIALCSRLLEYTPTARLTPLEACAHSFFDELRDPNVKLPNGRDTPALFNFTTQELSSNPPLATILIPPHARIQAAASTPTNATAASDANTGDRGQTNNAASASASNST
Series [8] has as its system Mus musculus. The series is described as follows: Effect on spatial working memory in Dp1Yey C57BL/6J mouse model assessed as reduction in total distance travelled at 40 mg/kg, po administered 5 days per week for 2 months by Y-maze test. The class given is functional, organism-based.
The species entered for series [9] is Homo sapiens. The experiment in a line: Inhibition of PI3K (unknown origin) at 0.5 uM.
Series [10] in a line: Drug concentration in brain of Dp1Yey C57BL/6J mouse model at 50 mg/kg by UHPLC-MS/MS analysis. The class given is ADME, organism-based. The conditions noted are these: in vivo, read-out: Ct.
Series [11] addresses Mitogen-activated protein kinase 1 (Homo sapiens) (UniProt P28482). The experiment in a line: Inhibition of ERK2 (unknown origin) at 0.5 uM.
Series [12] is described as follows: Drug concentration in wildtype mouse brain at 50 mg/kg by UHPLC-MS/MS analysis. It counts as ADME, organism-based. To be noted: in vivo, read-out: Ct.
The target of series [13] is Mitogen-activated protein kinase 3 (Homo sapiens) (UniProt P27361). The experiment in a line: Inhibition of ERK1 (unknown origin) at 0.5 uM.
Sequence of Mitogen-activated protein kinase 3 (Homo sapiens) (P27361 whole entry): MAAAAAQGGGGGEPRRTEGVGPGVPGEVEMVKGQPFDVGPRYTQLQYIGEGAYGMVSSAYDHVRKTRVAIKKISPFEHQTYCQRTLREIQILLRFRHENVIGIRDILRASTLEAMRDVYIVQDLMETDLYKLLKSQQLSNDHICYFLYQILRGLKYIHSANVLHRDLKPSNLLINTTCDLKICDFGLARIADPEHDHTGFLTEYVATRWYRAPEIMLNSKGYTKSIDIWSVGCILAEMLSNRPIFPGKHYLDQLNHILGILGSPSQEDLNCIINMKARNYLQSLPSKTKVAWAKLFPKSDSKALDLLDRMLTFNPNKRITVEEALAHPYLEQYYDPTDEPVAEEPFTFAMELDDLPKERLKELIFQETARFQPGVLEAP
Series [14] concerns Mus musculus. The series is described as follows: In vivo inhibition of DYRK1A in C57BL/6J mouse model carrying murine BACtgDyrk1a assessed as decrease in phosphorylated ERK to ERK ratio in brain administered intraperitoneally and measured after 24 hrs. It counts as functional. To be noted: route ip.
In series [15] the target is Dual specificity tyrosine-phosphorylation-regulated kinase 1A (Rattus norvegicus, UniProt Q63470). The experiment in a line: Inhibition of recombinant 6His-tagged rat DYRK1A (1 to 502 residues) expressed in Escherichia coli BL21 (DE3) cells using KISGRLSPIMTEQ as substrate incubated for 30 mins in presence of ATP by absorbance based assay.

Sequence of Mitogen-activated protein kinase 1 (Homo sapiens) (P28482 whole entry): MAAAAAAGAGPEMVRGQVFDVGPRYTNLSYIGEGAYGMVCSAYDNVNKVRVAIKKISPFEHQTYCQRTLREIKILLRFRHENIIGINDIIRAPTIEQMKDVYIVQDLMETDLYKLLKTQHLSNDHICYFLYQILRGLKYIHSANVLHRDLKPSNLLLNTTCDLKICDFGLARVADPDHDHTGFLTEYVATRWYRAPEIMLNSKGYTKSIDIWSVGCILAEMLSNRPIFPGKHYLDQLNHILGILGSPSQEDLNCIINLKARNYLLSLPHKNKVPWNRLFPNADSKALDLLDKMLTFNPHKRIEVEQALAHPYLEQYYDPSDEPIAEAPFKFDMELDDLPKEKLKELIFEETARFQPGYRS

By IC50 is commonly meant the concentration needed to halve the response being measured. In the case of `COc1cc2c(c(OC)c1)CN(C(=O)c1ccccc1)C(C1CCCCC1)C2` (stereo not given), the IC50 in [1] was over 20 µM.
For `O=C(c1cc(O)c(O)c(O)c1)N1Cc2c(O)cc(O)cc2CC1c1cc(O)c(O)c(O)c1` (stereo not given), the outcome in series [2] was Active. For the same compound, in [3], the Stability result is “Stable”. Besides, the outcome in series [4], in series [5] and in series [8] was inactive. Also, the inhibition result in [6], in series [9] and in series [14] was “Active” in each case. Besides, the inhibition entry in series [7], in series [11] and in [13] was “inactive” throughout. Further, the concentration in series [10] was determined as 27.6 nM; in series [12], 38.2 nM.
For the compound `O=C(O[C@@H]1Cc2c(O)cc(O)cc2O[C@@H]1c1cc(O)c(O)c(O)c1)c1cc(O)c(O)c(O)c1` [EPIGALOCATECHIN GALLATE], in [1], the IC50 was determined as 0.2 µM.
On the same count and under the same terms, in the case of `COc1ccc(C(=O)N2Cc3c(cc(OC)cc3OC)CC2C2CCCCC2)cc1` (stereo not given) it was over 20 µM.
The same measure, in the same setting: in the case of `Oc1cc(O)c2c(c1)CC(c1ccccc1)NC2` (stereo not given) it was over 20 µM; in that of `COc1cccc(C(=O)N2Cc3c(cc(OC)cc3OC)CC2c2cc(OC)c(OC)c(OC)c2)c1` (stereo not given), over 20 µM.
For `COc1cc2c(c(OC)c1)CNC(c1ccccc1)C2` (stereo not given), in series [1], the IC50 is over 20 µM.
Turning to `Oc1cc(O)c2c(c1)CC(C1CCCCC1)NC2` (stereo not given), in series [1], the IC50 is over 20 µM.
In the case of `O=C(c1ccccc1)N1Cc2c(O)cc(O)cc2CC1C1CCCCC1` (stereo not given), in series [1], the IC50 was over 20 µM.
As for `COc1cc2c(c(OC)c1)CNC(C1CCCCC1)C2` (stereo not given), the IC50 in series [1] was over 20 µM.
The same measure, in the same setting: for `COc1cc2c(c(OC)c1)CN(C(=O)c1ccccc1)C(c1cc(OC)c(OC)c(OC)c1)C2` (stereo not given) the value was over 20 µM.
Take `Oc1ccc(-c2cnc3[nH]cc(-c4ccc(F)cc4)c3c2)cc1O`: in series [15], the IC50 turned out to be 0.02 µM.
As for `O=C(c1ccc(O)cc1)N1Cc2c(O)cc(O)cc2CC1C1CCCCC1` (stereo not given), in [1], the IC50 was over 20 µM.
